Experimental data as given in US20100144714A1, “DERIVATIVES OF IMIDAZO PYRIMIDO AND DIAZEPINE PYRIMIDINE-DIONE, AND USE THEREOF AS A DRUG” (SOCIETE DE CONSEILS DE RECHERCHES ET D'APPLICATIONS …, priority 2006, published 2010).

biological target: T1, human CB2 receptors (Homo sapiens, UniProt P34972); assay: Affinity for the human CB2 cannabinoid receptors: inhibition of [3H]-CP55940 binding to transfected CHO-K1 cell membranes; details: [3H]-CP55940 (1 nM), CHO-K1 membranes expressing human CB2; Cheng-Prusoff corrected; x = Ki below 50 nM
T1 construct: expressed in transfected cells
T1 sequence (P34972 whole entry): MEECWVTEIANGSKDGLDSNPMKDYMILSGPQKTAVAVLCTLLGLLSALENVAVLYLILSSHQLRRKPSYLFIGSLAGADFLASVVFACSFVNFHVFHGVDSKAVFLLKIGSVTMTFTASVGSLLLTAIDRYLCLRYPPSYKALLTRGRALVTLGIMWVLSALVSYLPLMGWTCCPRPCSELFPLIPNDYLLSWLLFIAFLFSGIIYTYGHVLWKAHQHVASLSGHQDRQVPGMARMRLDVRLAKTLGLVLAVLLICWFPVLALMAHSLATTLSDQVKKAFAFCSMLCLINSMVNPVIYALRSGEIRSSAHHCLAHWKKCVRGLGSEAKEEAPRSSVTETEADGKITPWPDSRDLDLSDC
Experimental: The affinity of the compounds of the present invention for the different sub-types of cannabinoid receptors was measured according to procedures analogous to those described hereafter for the human CB2 receptor.
Study of the Affinity of the Compounds for the Human CB2 Cannabinoid Receptors
The affinity of the compounds of the invention for the human CB2 receptors is determined by measuring the inhibition of the binding of [^3H]-CP55940 to transfected CHO-K1 cell membrane preparations.
The CHO-K1 cells expressing the human CB2 receptors in a stable fashion are cultured in an RPMI 1640 medium containing 10% foetal calf serum, 2 mM of glutamine, 100 U/ml of penicillin, 0.1 mg/ml of streptomycin and 0.5 mg/ml of G418. The cells are collected with 0.5 mM of EDTA and centrifuged at 500 g for 5 minutes at 4° C. The pellet is re-suspended in phosphate buffered saline medium (PBS) and centrifuged at 500 g for 5 minutes at 4° C. The pellet is re-suspended in a Tris 50 mM buffer medium at pH 7.4 and centrifuged at 500 g for 5 minutes at 4° C. The cells are lysed by sonication and centrifuged at 39,000 g for 10 minutes at 4° C. The pellet is re-suspended in the Tris 50 mM buffer medium at pH 7.4 and centrifuged at 50,000 g for 10 minutes at 4° C. The membranes obtained in this last pellet are stored at −80° C.
Measurement of the competitive inhibition of the binding of the [^3H]-CP55940 to the CB2 receptors is carried out in duplicate using 96-well polypropylene plates. The cell membranes (10 μg of proteins/well) are incubated with the [^3H]-CP55940 (1 nM) for 60 minutes at 25° C. in a Tris-HCl 50 mM buffer medium, pH 7.4, comprising 0.1% bovine serum albumin (BSA), 5 mM of MgCl2, and 50 μg/ml of bacitracin.
The bound [^3H]-CP55940 is separated from the free [^3H]-CP55940 by filtration through GF/C glass fibre filter plates (Unifilter, Packard) pre-impregnated with 0.1% polyethylenimine (P.E.I.), using a Filtermate 196 (Packard). The filters are washed with Tris-HCl 50 mM buffer, pH 7.4 at 0-4° C. and the radioactivity present is determined using a counter (Packard Top Count).
The specific binding is obtained by subtracting the non-specific binding (determined in the presence of 0.1 μM of WIN55212-2 from the total binding). The data are analyzed by computer-assisted non-linear regression (MDL). For each test, a Cheng-Prusoff correction is made in order to convert the IC50 to the inhibition constant, Ki.
where [L] is the concentration of the radioligand used in the test and Kd is the radioligand equilibrium dissociation constant.

| Compound | Ki |
| --- | --- |
| CN1CCN(c2ccc(CN3C(=O)C(CC4CCCCC4)n4c3nc3ccccc3c4=O)cc2)CC1 (stereo not shown) [Example 1] | < 0.05 µM |
| CN1CCN(c2ccc(CN3C(=O)C(c4ccc(-c5ccccc5)cc4)n4c3nc3ccccc3c4=O)cc2)CC1 (stereo not shown) [Example 2] | < 0.05 µM |
| CN1CCN(c2ccc(CN3C(=O)C(CCC4CCCCC4)n4c3nc3ccccc3c4=O)cc2)CC1 (stereo not shown) [Example 4] | < 0.05 µM |
| CN1CCN(c2ccc(CN3C(=O)C(C4CCCCC4)n4c3nc3ccccc3c4=O)cc2)CC1 (stereo not shown) [Example 5] | < 0.05 µM |
| CN1CCN(c2ccc(CN3C(=O)C(c4ccc5ccccc5c4)n4c3nc3ccccc3c4=O)cc2)CC1 (stereo not shown) [Example 8] | < 0.05 µM |
| CN1CCN(c2ccc(CN3C(=O)C(Cc4ccccc4)n4c3nc3ccccc3c4=O)cc2)CC1 (stereo not shown) [Example 12] | < 0.05 µM |
| CN1CCN(c2ccc(CN3C(=O)C4(Cc5ccccc5C4)n4c3nc3ccccc3c4=O)cc2)CC1 [Example 17] | < 0.05 µM |
| CCCCC1(CCCC)C(=O)N(Cc2ccc(N3CCN(C)CC3)cc2)c2nc3ccccc3c(=O)n21 [Example 31] | < 0.05 µM |
| CN1CCN(c2ccc(CN3C(=O)CC(C)(C)n4c3nc3ccccc3c4=O)cc2)CC1 [Example 35] | < 0.05 µM |
| CN1CCN(c2ccc(CN3C(=O)C(C)(C)Cn4c3nc3ccccc3c4=O)cc2)CC1 [Example 37] | < 0.05 µM |
| CC(C)C[C@H]1CC(=O)N(Cc2ccc(N3CCN(C)CC3)cc2)c2nc3ccccc3c(=O)n21 [Example 38] | < 0.05 µM |
| CC(C)CC1CC(=O)N(Cc2ccc(N3CCN(C)CC3)cc2)c2nc3ccccc3c(=O)n21 (stereo not shown) [Example 43] | < 0.05 µM |
| CN1CCN(c2ccc(CN3C(=O)CC(c4ccccc4)n4c3nc3ccccc3c4=O)cc2)CC1 (stereo not shown) [Example 44] | < 0.05 µM |
| CN1CCN(c2ccc(CN3C(=O)CC(C4CCCCC4)n4c3nc3ccccc3c4=O)cc2)CC1 (stereo not shown) [Example 45] | < 0.05 µM |
| CN1CCN(c2ccc(CN3C(=O)CC(Cc4ccccc4)n4c3nc3ccccc3c4=O)cc2)CC1 (stereo not shown) [Example 46] | < 0.05 µM |
| CN1CCN(c2ccc(CN3C(=O)CC(CCc4ccccc4)n4c3nc3ccccc3c4=O)cc2)CC1 (stereo not shown) [Example 48] | < 0.05 µM |
